# Assays:
# hClpP = biological target: T1, hClpP (Homo sapiens, UniProt Q16740); assay: FITC-casein hClpP activity test; assay type: biochemical; settings: 100 µM, normalized to 100 µM ONC201 activity
# T1 construct: made in house; host or cells: E. coli BL21-CodonPlus (DE3)-RIL
# Experimental: To assess the potency of the proteolytic activity of hClpP, a FITC–casein assay was performed. In a black, flat-bottom, 96-well plate, a 3 μM solution of purified hClpP in assay buffer (50 mM of HEPES, pH 7.5, 300 mM of KCl, 1 mM of DTT, 15% v/v glycerol; AB) preincubated at 37 °C for 15 min was added to 5 μL of the tested compounds in DMSO at different concentrations (ranging from 1 to 100 μM) and incubated for 15 min at 37 °C under shaking. As a control, three wells were filled with 5 µL of DMSO. The kinetic measurement was started after adding 2 µM of the fluorogenic peptides FITC and casein (Merck, C3777), used as hydrolytic substrates. The fluorescence of the cleaved FITC was recorded over 60 min at 37 °C on a Tecan Infinite M200 Pro (λex: 485 nm, emission λem: 535 nm, gain: 60). The slope in the linear range between 600 and 1800 s was determined and plotted against time. The EC50 for each tested compound was calculated using GraphPad Prism 7.05. Results are reported as the mean of two independent experiments performed in triplicate.
# SU-DIPG-36 cells = assay: 2D cell viability assay (CCK8); assay type: cell-based, human; settings: SU-DIPG-36, 100 µM, 72 h exposure
# Experimental: (§1) Patient-derived diffuse intrinsic pontine glioma cell cultures (SU-DIPG-36, SU-DIPG-50) were provided by Dr Michelle Monje (Institutional Review Board (Stanford University) approval). The cells were cultured as a monolayer in media that was changed once a week at 37 °C in 5% CO2 by using Tumor Stem Media composed by: a 1:1 ratio of DMEM/F12 (Invitrogen)/Neurobasal (-A) (Invitrogen), B27 (-A) (Life Technologies, Milan, Italy), 20 ng/mL of human basic fibroblast growth factor (Life Technologies), 20 ng/mL of recombinant human epidermal growth factor (Life Technologies), 10 ng/mL of platelet-derived growth factor-AA, 10 ng/mL of platelet-derived growth factor-BB (Life Technologies), and 20 ng/mL of heparin (StemCell Technologies, Milan, Italy).
# (§2) Then, 1 × 10^4 SU-DIPG-36 or SU-DIPG-50 cells/well in 100 µL of culture medium were seeded into 96-well plates and incubated O/N at 37 °C in CO2 (5%). […] Control wells with DMSO were used to evaluate the possible cytotoxicity of the solvent. […] Then, the absorbance was red (λ = 450 nm) with Tecan Infinite 200. GraphPad Prism allowed for the determination of IC50.
# SU-DIPG-50 cells = assay: 2D cell viability assay (CCK8); assay type: cell-based, human; settings: SU-DIPG-50, 100 µM, 72 h exposure
# Experimental: as §1, §2
# SH-SY-5Y spheroids = assay: 3D cell viability assay (CellTiter-Glo 3D, ATP); assay type: cell-based, human; settings: 72 h; for viability at 100 µM: Homo sapiens, SH-SY5Y, ATP assay, mean ± SEM; for decrease in cell viability: SH-SY-5Y spheroids, highest concentration (100 µM)
# SK-N-AS spheroids = assay: 3D cell viability assay (CellTiter-Glo 3D, ATP); assay type: cell-based, human; settings: 72 h; for viability at 100 µM: Homo sapiens, SK-N-AS, ATP assay, mean ± SEM; for decrease in cell viability: SK-N-AS spheroids, highest concentration (100 µM)
# P-gp = biological target: T2, P-gp (Homo sapiens, UniProt P08183); assay: Calcein-AM experiment in MDCK-MDR1 cells; assay type: cell-based
# T2 construct: expressed in transfected cells; host or cells: MDCK-MDR1
# T2 sequence (P08183 whole entry): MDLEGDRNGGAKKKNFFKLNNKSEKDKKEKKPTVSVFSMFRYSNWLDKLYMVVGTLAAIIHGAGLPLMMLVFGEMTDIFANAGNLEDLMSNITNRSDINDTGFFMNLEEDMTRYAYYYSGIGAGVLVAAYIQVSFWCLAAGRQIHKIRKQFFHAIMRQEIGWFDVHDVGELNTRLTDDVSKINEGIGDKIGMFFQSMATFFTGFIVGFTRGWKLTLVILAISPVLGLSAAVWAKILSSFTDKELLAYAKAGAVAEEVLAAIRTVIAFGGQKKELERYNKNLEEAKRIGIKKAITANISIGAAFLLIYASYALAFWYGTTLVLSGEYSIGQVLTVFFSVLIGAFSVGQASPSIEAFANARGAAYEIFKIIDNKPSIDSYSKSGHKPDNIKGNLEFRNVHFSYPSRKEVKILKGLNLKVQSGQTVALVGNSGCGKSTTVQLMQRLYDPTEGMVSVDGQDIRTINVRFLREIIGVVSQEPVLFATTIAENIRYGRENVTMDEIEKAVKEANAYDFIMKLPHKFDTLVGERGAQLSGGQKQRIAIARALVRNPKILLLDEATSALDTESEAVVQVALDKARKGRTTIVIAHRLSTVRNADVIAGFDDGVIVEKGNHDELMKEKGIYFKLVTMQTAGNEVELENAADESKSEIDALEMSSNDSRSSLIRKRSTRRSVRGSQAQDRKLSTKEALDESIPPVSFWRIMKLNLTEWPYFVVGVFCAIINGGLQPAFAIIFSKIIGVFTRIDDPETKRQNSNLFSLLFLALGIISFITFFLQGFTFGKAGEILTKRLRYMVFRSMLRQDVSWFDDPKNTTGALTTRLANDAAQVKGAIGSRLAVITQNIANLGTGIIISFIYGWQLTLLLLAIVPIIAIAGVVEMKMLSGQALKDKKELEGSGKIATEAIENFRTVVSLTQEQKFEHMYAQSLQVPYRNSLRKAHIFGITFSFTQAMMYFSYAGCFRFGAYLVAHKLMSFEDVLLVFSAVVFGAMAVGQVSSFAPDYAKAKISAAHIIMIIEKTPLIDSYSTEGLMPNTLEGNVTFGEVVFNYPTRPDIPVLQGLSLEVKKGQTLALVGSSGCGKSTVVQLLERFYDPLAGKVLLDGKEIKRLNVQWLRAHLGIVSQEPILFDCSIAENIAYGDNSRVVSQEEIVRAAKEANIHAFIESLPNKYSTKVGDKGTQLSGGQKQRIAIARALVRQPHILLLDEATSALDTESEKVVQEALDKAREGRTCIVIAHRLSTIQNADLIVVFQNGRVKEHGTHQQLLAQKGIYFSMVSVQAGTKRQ
# Experimental: Here, 3 × 10^4 MDCK-MDR1 cells/well were seeded (100 µL) in a black 96-well culture plate and incubated in CO2 (5%) at 37 °C O/N. The compounds to be tested were added at different concentrations (0.1–100 µM) in 100 µL of culture medium and then incubated for 30 min. […] The fluorescence of the wells containing the tested compounds was compared with that of those containing the untreated cells. The percentage of fluorescence as a function of log[dose] allowed the EC50 values to be determined.
# [1] = Drug transport experiments, Caco-2 monolayer; assay type: in vitro ADME; settings: human, 1 × 10^−4 M
# Source text: The experiment started with the preparation of the Caco-2 monolayer, which occurred by seeding the cells (20,000/well) in Millicell plates (Millipore, Milan, Italy). Its growth was followed for 21 days by changing the medium occasionally and measuring its transepithelial electrical resistance (TEER) daily using an epithelial voltohmmeter (Millicell-ERS) until at least […] was reached.
# After 21 days, the plate was washed twice with Hank’s balanced salt solution (HBSS) (Invitrogen). After the second wash, the wells were filled with buffer, and the plate was kept at 37 °C for 30 min. After the incubation time, the HBSS buffer was replaced with the solutions of the compounds to be tested at a concentration of 1 × 10^−4 M. The plates were placed in an incubator at 37 °C for 120 min. The apparent permeability (Papp), in units of nm s^−1, was calculated.
# BCRP = biological target: T3, BCRP (Homo sapiens, UniProt Q9UNQ0); assay: Hoechst 33342 experiment in MDCK-BCRP cells; assay type: cell-based; settings: Hoechst 33342, MDCK-BCRP cells
# T3 construct: expressed in transfected cells; host or cells: MDCK-BCRP
# T3 sequence (Q9UNQ0 1-655): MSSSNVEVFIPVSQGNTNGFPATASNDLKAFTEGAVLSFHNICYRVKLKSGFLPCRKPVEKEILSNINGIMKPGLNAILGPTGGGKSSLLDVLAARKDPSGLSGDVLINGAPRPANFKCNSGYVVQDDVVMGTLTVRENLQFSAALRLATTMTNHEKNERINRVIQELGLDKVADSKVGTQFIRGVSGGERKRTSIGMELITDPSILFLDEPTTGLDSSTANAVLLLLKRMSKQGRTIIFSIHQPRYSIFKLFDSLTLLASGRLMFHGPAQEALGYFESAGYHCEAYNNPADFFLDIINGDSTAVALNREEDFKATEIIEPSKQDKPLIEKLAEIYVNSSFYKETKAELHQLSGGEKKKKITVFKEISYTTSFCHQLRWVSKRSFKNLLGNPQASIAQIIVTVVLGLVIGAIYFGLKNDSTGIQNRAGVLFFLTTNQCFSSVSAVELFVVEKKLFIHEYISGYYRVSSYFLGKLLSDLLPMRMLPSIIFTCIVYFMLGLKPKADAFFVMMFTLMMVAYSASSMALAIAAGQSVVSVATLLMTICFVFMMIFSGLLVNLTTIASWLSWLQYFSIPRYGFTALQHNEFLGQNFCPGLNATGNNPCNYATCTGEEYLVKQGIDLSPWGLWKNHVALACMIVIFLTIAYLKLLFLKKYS
# Experimental: Firstly, 3 × 10^4 MDCK-BCRP cells/well were seeded (100 µL) in a 96-well black culture plate and brought to O/N confluence in a 5% CO2 incubator at 37 °C. Different concentrations (0.1–100 µM) of the compounds in the culture medium (100 µL) to be tested were added, and the plate was incubated for 30 min. […] The supernatant was aspirated, and the cells were fixed for 20 min with 4% PFA (100 µL), protecting them from light. Three washes with ice-cold PBS and three washes with saline buffer followed, and then the plate was analyzed (λex 350 nm and λem 460 nm) by Victor3 (PerkinElmer). EC50 values were calculated from the percentage increase in fluorescence compared to log[dose].
# T1 sequence (Q16740 with tags, fused parts or gaps): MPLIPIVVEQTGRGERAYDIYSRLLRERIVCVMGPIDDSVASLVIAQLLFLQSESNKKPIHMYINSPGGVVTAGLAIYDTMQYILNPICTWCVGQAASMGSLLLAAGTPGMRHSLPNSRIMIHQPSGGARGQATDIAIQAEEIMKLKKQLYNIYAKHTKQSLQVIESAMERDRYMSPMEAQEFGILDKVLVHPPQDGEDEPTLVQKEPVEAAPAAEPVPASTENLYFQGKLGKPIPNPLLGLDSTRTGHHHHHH
SMILES,activation of hClpP (hClpP) [%],cancer cell death (cytotoxic effect) (SU-DIPG-36 cells) [%],cancer cell death (cytotoxic effect) (SU-DIPG-50 cells) [%],viability at 100 µM (SH-SY-5Y spheroids) [%],decrease in cell viability (SH-SY-5Y spheroids),viability at 100 µM (SK-N-AS spheroids) [%],decrease in cell viability (SK-N-AS spheroids),EC50 (P-gp) [µM],"Papp A→B at 120 min ([1]; Caco-2, apical-basolateral) [×10⁻⁶ cm/s]","Papp B→A at 120 min ([1]; Caco-2, basolateral-apical) [×10⁻⁶ cm/s]",EC50 (BCRP) [µM]
"COc1ccc2c3c([nH]c2c1)C(C)=NCC3 [Harmaline, 7-methoxy-1-methyl-4,9-dihydro-3H-pyrido[3,4-b]indole]",28,34,50,67.5 ± 13.9,~ 32.5%,44.2 ± 24.2,~ 56%,> 100,49.6,254,14.9
"Cc1ccccc1CN1C(=O)C2=C(CCN(Cc3ccccc3)C2)N2CCN=C12 [ONC201, reference compound]",–,83,70,13.7 ± 6.23,~ 85%,17.5 ± 6.8,~ 85%,13.4,–,–,–
